# Experiments:
# Na,K-ATPase [1] = experiment: Inhibition of [3H]-ouabain binding to rat brain synaptosomal fraction (filtration); conditions: Figure 10; result in words
# Method: Assays for Digitalis-Like Activity: • The digitalis-like activity of each fraction obtained in the course of the purification was determined quantitatively using at least two of the following bioassays: • a. Inhibition of [^3H]-ouabain binding: • The binding of [^3H]-ouabain to rat brain synaptosomal fraction was carried out by a conventional filtration technique as previously described (Lichtstein D., et al., Life Sci. 38: 1261-1270 (1986)). In brief: The reaction mixture (500µl final volume) contained the following constituents (final concentrations): 50 mM Tris-HCI buffer (pH 7.4), 0.5 mM EDTA, 80 mM NaCI, 4 mM MgSO4, 2 mM ATP (Tris, vanadium-free) and 32 nM [^3H]-ouabain (19.5 Ci/mmol). […] The filters were washed two times with 3 ml volumes of the same Tris buffer, dried and assayed for radioactivity in a Packard liquid scintillation counter at a counting efficiency of approximately 50%. Specific binding was calculated by subtracting the binding observed in the presence of 100 µM unlabeled ouabain from that observed in the absence of unlabeled ouabain. […] Inhibition of Na, K-ATPase activity: • Na,K-ATPase activity in rat brain microsomal fraction was determined as previously described (Lichtstein D., et al., Life Sci. 38: 1261-1270 (1986)). […]
# Na,K-ATPase [2] = experiment: Inhibition of Na,K-ATPase activity in rat brain microsomal fraction (colorimetric inorganic phosphate); format: biochemical
# Method: Assays for Digitalis-Like Activity: • The digitalis-like activity of each fraction obtained in the course of the purification was determined quantitatively using at least two of the following bioassays: • a. Inhibition of [^3H]-ouabain binding: • The binding of [^3H]-ouabain to rat brain synaptosomal fraction was carried out by a conventional filtration technique as previously described (Lichtstein D., et al., Life Sci. 38: 1261-1270 (1986)). In brief: The reaction mixture (500µl final volume) contained the following constituents (final concentrations): 50 mM Tris-HCI buffer (pH 7.4), 0.5 mM EDTA, 80 mM NaCI, 4 mM MgSO4, 2 mM ATP (Tris, vanadium-free) and 32 nM [^3H]-ouabain (19.5 Ci/mmol). Reactions were initiated by the addition of 200 µl of crude synaptosomal fraction resulting in a final protein concentration of 200 µg per reaction. Following incubation for 1 hr. at 37° C, the reactions were terminated by the addition of 3 ml cold (4°C) 50 mM Tris-HCI (pH 7.4) and filtered over Whatman GF/B filters. The filters were washed two times with 3 ml volumes of the same Tris buffer, dried and assayed for radioactivity in a Packard liquid scintillation counter at a counting efficiency of approximately 50%. Specific binding was calculated by subtracting the binding observed in the presence of 100 µM unlabeled ouabain from that observed in the absence of unlabeled ouabain. Specific binding represented 93% of the total binding under control conditions. • b. Inhibition of Na, K-ATPase activity: • Na,K-ATPase activity in rat brain microsomal fraction was determined as previously described (Lichtstein D., et al., Life Sci. 38: 1261-1270 (1986)). Enzyme activity was measured by the colorimetric determination of inorganic phosphate after the incubation of microsomes (200 µg protein per reaction) at 37 C in a solution (final volume 500 µl) containing (final concentrations) 34 mM Tris-HCI (pH 7.4), 100 mM NaCl, 20 mM KCI, 4 Mm MgC12 and 4 mM ATP (Tris, vanadium free). After preincubation for 10 min., the ATP was added to initiate the reaction. Reactions were terminated by the addition of 100 µl of 5% trichloroacetic acid and.the precipitate was removed by centrifugation. Na,K-independent ATPase activity was determined by omitting Na^+ and K^+ from the reaction mixture or by the addition of 1 mM ouabain to the complete assay mixture. • c. Inhibition of ^86Rb uptake to N1E115 cells: • Neuroblastoma N1E115 cells were grown in MEM (Modified Eagle's Medium) medium. Cells were removed from their growth flask by raising and lowering the medium with a pipette and centrifuged at 100 x g in a Sorval RC-5 centrifuge for 10 minutes. The pellet was resuspended in MEM. 86Rb-uptake was initiated by the addition of N1E115 cells to MEM which contained ^86Rb tracer (1 µCi). Uptake was terminated after 1 min. by the addition of 1.5 ml ice cold 125 mM MgC12 solution followed by 1 min. centrifugation in an Eppendorf centrifuge. The Eppendorf tube was cut and the pellet removed and transferred to a scintilation vial, to which 6 ml of Emulsifier Scintillator 299TM (Packard) were added and radioactivity was determined.
smiles,measurement,setting,value
"CCCC=CC(O)CC(O)CCCCCCCCCC(=O)O (single isomer, unassigned) [DLC-II, 11,13-dihydroxy-14-octadecaenoic acid]",inhibition of [^3H]-ouabain binding,"Na,K-ATPase [1]",inhibit [^3H]-ouabain binding in a dose dependent mode
same,"Na+, K+-ATPase activity (% of control)","Na,K-ATPase [2]; amount 1 (arbitrary units)",90 % of control
same,"Na+, K+-ATPase activity (% of control)","Na,K-ATPase [2]; amount 2 (arbitrary units)",67 % of control
same,"Na+, K+-ATPase activity (% of control)","Na,K-ATPase [2]; amount 3 (arbitrary units)",71 % of control
same,"Na+, K+-ATPase activity (% of control)","Na,K-ATPase [2]; amount 5 (arbitrary units)",51 % of control
same,"Na+, K+-ATPase activity (% of control)","Na,K-ATPase [2]; amount 8 (arbitrary units)",10 % of control

# From EP0381527A1, “Ouabain like compounds and pharmaceutical compositions containing them” (YISSUM RESEARCH DEVELOPMENT COMPANY OF THE HEBREW …, priority 1989, dated 1990)
